Assay results published in patent publication US8980846B2, “Composition containing styraxlignolide A or the aglycone thereof as an active ingredient for preventing or treating asthma” (Korea Research Institute of Bioscience and Biotechnology, priority 2010, dated 2015).

Legend:
[1] = Body weight in asthma-induced mice; format: in vivo, Balb/c female mice; conditions: 3 mg/kg PO 1 hour prior to ovalbumin inhalation
Procedure: (§1) To prepare bronchial asthma-induced experimental animals, six-week-old Balb/c female mice of mean weight about 20 g were used. After one week of adaptation, individuals which had no observed abnormality on a basic physical examination were targeted. 200 μL of phosphate buffered saline (PBS)(pH 7.4) in which 2 mg of aluminum hydroxide (A8222, Sigma, St. Louis, Mo.) and 20 μg of ovalbumin (A5503, Sigma, St. Louis, Mo.) were suspended was injected into the peritoneal cavity at two-week intervals to result in sensitization. On days 28 to 30 after the first intraperitoneal administration of ovalbumin, inhalation challenge was performed for 30 min with 1% ovalbumin using an ultrasonic atomizer. 24 hours after the last antigen administration, airway hyperresponsiveness was measured. After 24 hours, a lethal dose of pentobarbital (Entobar®, Hanlim Pharm Co., Ltd.) was administered, body weight measurement and bronchotomy were performed, and bronchoalveolar lavage was performed with a total 1.2 mL of physiological saline, and then, samples were collected. […] Eight white mice were used for each group. Experimental groups for homoegonol were a group (hE7.5) in which animals were orally administered with 7.5 mg/kg homoegonol 1 hour prior to ovalbumin inhalation, a group (hE15) in which animals were orally administered with 15 mg/kg homoegonol 1 hour prior to ovalbumin inhalation, and a group (hE30) in which animals were orally administered with 30 mg/kg homoegonol 1 hour prior to ovalbumin inhalation, and five white mice were used for each group.
(§2) To determine an effect of styraxlignolide A on reduction in body weight in asthma-induced mice, body weight of each mouse prepared in Example 2 was measured. For statistical analyses for all measurements, means and standard errors (mean±S.E.) according to a number of variables were calculated, and comparison between each group was analyzed by performing a Mann-whitney U test using SPSS 10.0. Statically significance was accepted at p<0.05.
as §2, with “homoegonol” for “styraxlignolide A”

[2] = test system: TGF-β1; experiment: TGF-β1 in bronchoalveolar lavage fluid; format: in vivo, Balb/c female mice; conditions: asthma-induced mice, homoegonol study; 3 mg/kg PO
Procedure: as §1
(§3) To examine the effect of homoegonol on airway remodeling, generation of TGF-β1 and IL-17 in bronchoalveolar lavage fluid was measured.

[3] = test system: IL-17; experiment: IL-17 in bronchoalveolar lavage fluid; format: in vivo, Balb/c female mice; conditions: asthma-induced mice, homoegonol study; 3 mg/kg PO
Procedure: as §1, §3

[4] = test system: alanine aminotransferase (ALT) and aspartate aminotransferase (AST) in serum; format: in vivo; conditions: mouse, in vivo, po, 3 mg/kg
Procedure: as §1
To examine liver toxicity of styraxlignolide A, a commercially available ELISA kit (BECKMAN Coulter, Inc., Fullerton, Calif., USA) was used to measure alanine aminotransferase (ALT) and aspartate aminotransferase (AST) in serum.

[5] = test system: inflammatory cells in the airway mucosa; experiment: Inflammatory cell infiltration in airway mucosa, inflammatory index (H&E staining); format: in vivo, Balb/c female mice; conditions: asthma-induced mice, scale 0-4
[6] = test system: goblet cells; experiment: Ratio of goblet cells to bronchial epithelial cells (PAS staining); format: in vivo, Balb/c female mice; conditions: asthma-induced mice, styraxlignolide A study; 3 mg/kg PO 1 hour prior to ovalbumin inhalation
Procedure: as §1
Lungs removed from each individual were subjected to conventional formalin fixation and paraffin embedding, and permanent section slides of 4 μm thickness were prepared, and periodic acid Schiff (PAS) staining was performed to determine goblet cells. Proliferation of goblet cells was assessed by measuring the ratio of goblet cells to bronchial epithelial cells.
In accordance with the method in <Experimental Example 7-2>, the ratio of goblet cells which were determined by periodic acid-Schiff staining to bronchial epithelial cells were measured to assess proliferation of goblet cells.

[7] = test system: inflammatory cells in bronchoalveolar lavage fluid; experiment: Inflammatory cell counts in bronchoalveolar lavage fluid (Diff-Quick staining); format: in vivo, Balb/c female mice; conditions: asthma-induced mice
[8] = test system: inflammatory cells in bronchoalveolar lavage fluid; experiment: as above; format: in vivo, Balb/c female mice; conditions: asthma-induced mice; remark: listed apart in the source
Procedure: as §1
Bronchoalveolar lavage fluid was collected from individuals of each experimental group in <Example 2> and right after the collection, fluid was stained with trypan blue. The number of total cells except dead cells was calculated using a hemocytometer. Then, Diff-Quick staining (Sysmex, Swizerland) was performed after smear preparation with Cytospin II, and eosinophils and other inflammatory cells were differentially counted.
To examine the effect of homoegonol on asthma, variation in the numbers of asthma-related inflammatory cells was measured according to the method in <Experimental Example 3>.

[9] = test system: airway hyperresponsiveness; experiment: Airway hyperresponsiveness, Penh by one chamber plethysmography after methacholine inhalation; format: in vivo, Balb/c female mice; conditions: asthma-induced mice, homoegonol study, 3 mg/kg PO
Procedure: as §1, with “Experimental groups for homoegonol were a group (hE7.5) in which animals were orally administered with 7.5 mg/kg homoegonol 1 hour prior to ovalbumin inhalation, a group (hE15) in which animals were orally administered with 15 mg/kg homoegonol 1 hour prior to ovalbumin inhalation, and a group (hE30) in which animals were orally administered with 30 mg/kg homoegonol 1 hour prior to ovalbumin inhalation, and five white mice were used for each group.” left out
The effect of styraxlignolide A on airway hyperresponsiveness caused by asthma occurrence was examined by measuring airway resistance with one chamber plethysmography (All medicus, Seoul, Republic of Korea) and degree of airway resistance was assessed by measuring Penh (enhanced pause) values. The baseline value was measured under a normal respiratory condition, and then, PBS was inhaled using an ultrasonic atomizer for 3 min, and Penh values were measured over 3 min. […] Louis, Mo.) which is used in general methods for diagnosis of bronchial asthma were inhaled and Penh values were measured. Penh value is shown in the following Equation 1, and the resulting Penh value was expressed as a percent increase in Penh after inhalation of each concentration of methacholine. The baseline Penh (saline challenge) was expressed as 100%.
Te: expiratory time (sec), the time from inspiration to the next inspiration
RT: relaxation time, the elapsed time between the beginning of the expiration and the moment when the remaining 30% of the tidal volume has been reached during expiration
PEF: Peak expiration flow
PIF: Peak inspiration flow
To examine the effect of homoegonol on airway hyperresponsiveness caused by asthma occurrence, Penh value was measured according to the method in <Experimental Example 2>.

[10] = test system: goblet cells; experiment: Ratio of goblet cells to bronchial epithelial cells (PAS staining); format: in vivo, Balb/c female mice; conditions: asthma-induced mice, homoegonol study, 3 mg/kg PO
[11] = test system: ovalbumin-specific IgE; experiment: IgE levels in serum and bronchoalveolar lavage fluid (ELISA); format: in vivo, Balb/c female mice; conditions: asthma-induced mice, homoegonol study, 3 mg/kg PO
[12] = test system: fibrosis in subsegmental bronchi; experiment: Fibrosis in subsegmental bronchi (Masson's trichrome staining); format: in vivo, Balb/c female mice; conditions: asthma-induced mice, styraxlignolide A study; 3 mg/kg PO 1 hour prior to ovalbumin inhalation
Procedure: as §1

[13] = homoegonol study, 3 mg/kg PO, 3 mg/kg
[14] = styraxlignolide A study, 3 mg/kg PO 1 hour prior to ovalbumin inhalation
[15] = homoegonol study, 3 mg/kg PO, bronchoalveolar lavage fluid, 3 mg/kg

Q: Which body weight ([1]; homoegonol study) does the source give for `C[C@@H]1C[C@H]2[C@@H]3CCC4=CC(=O)C=C[C@]4(C)[C@@]3(F)[C@@H](O)C[C@]2(C)[C@@]1(O)C(=O)CO` [DEXA, dexamethasone] here?
A: The body weight was 19.98 ± 0.39 g.

Q: What about the body weight ([1]; styraxlignolide A study) of the same compound?
A: The body weight was 20.49 ± 0.29 g.

Q: And the “TGF-β1 concentrations in bronchoalveolar lavage fluid” value [2]?
A: The value was 159.2813 ± 12.9548 pg/mL.

Q: What about the “IL-17 concentrations in bronchoalveolar lavage fluid” value [3] of the same compound?
A: The value was 48.8409 ± 4.3738 pg/mL.

Q: What about the “serum ALT” value [4] of the same compound?
A: Its value is 274.67±12.12 IU/L.

Q: What about the “serum AST” value [4] of the same compound?
A: Its value is 369.33±31.27 IU/L.

Q: What about the “Inflammatory index, peribronchiolar” value [5, 13] of the same compound?
A: Its value is 0.78±0.1315.

Q: What about the “Inflammatory index, perivascular” value [5, 13] of the same compound?
A: The value was 0.44±0.1571.

Q: What about the peribronchiolar inflammatory index [5, 14] of the same compound?
A: Its peribronchiolar inflammatory index is 1.46±0.26.

Q: What about the “ratio of goblet cells to bronchiolar epithelial cells” value [6] of the same compound?
A: Its value is 34.96±6.86%.

Q: What about the “Number of cells, Eosinophils” value [7, 15] of the same compound?
A: Its value is 1.32±0.49 ×10^3 cells/mouse.

Q: What about the “Number of cells, Total inflammatory cells” value [7, 15] of the same compound?
A: Its value is 20.04±4.7744 ×10^3 cells/mouse.

Q: What about the “numbers of total inflammatory cells in bronchoalveolar lavage fluid” value [7, 14] of the same compound?
A: Its value is 153.48±19.69.

Q: What about the “Number of cells, Other inflammatory cells” value ([8]; homoegonol study, 3 mg/kg PO, bronchoalveolar lavage fluid) of the same compound?
A: Its value is 18.72 ± 2.2919 ×10^3 cells/mouse.

Q: What about the “numbers of eosinophils in bronchoalveolar lavage fluid” value [8, 14] of the same compound?
A: Its value is 41.88±9.08.

Q: And the Penh values ([9]; methacholine 0 mg/ml)?
A: The Penh values was 0.4407 ± 0.0422.

Q: And the Penh values ([9]; methacholine 12.5 mg/ml)?
A: The Penh values was 0.7768 ± 0.1475.

Q: What about the Penh values ([9]; methacholine 25 mg/ml) of the same compound?
A: Its Penh values is 0.8900 ± 0.1619.

Q: What about the Penh values ([9]; methacholine 50 mg/ml) of the same compound?
A: Its Penh values is 1.1036 ± 0.4048.

Q: And the “Goblet cells %/bronchial epithelial cell unit” value [10]?
A: Its value is 18.7828±5.9397%.

Q: And the “Total IgE level in bronchoalveolar lavage fluid” value ([11]; bronchoalveolar lavage fluid)?
A: The value was 24.3617 ± 4.8149 ng/mL.

Q: And the “Total serum IgE level” value ([11]; serum, Table 2)?
A: The value was 9.14 ± 2.0591 µg/mL.

Q: What about the “area of a fibrosis stained region per 100 μm of a basement membrane perimeter” value [12] of the same compound?
A: The value was 639.59±106.96 μm^2.
